What all share (format): cell-based
Assay [1] relates to Shigella sp. In words: Gradient plate in vitro antibiotic activity (MIC), Shigella sp. As to conditions: read-out: Minimum Inhibitory Concentration. An excerpt: (§1) The antibiotic activity of the cephalosporin compounds of this invention is illustrated by the data provided in the following Table of representative compounds. The values in the Table are the minimum inhibitory concentrations (MIC) for the test compounds against the indicated microorganisms. The MIC values were obtained using the gradient plate in vitro method for determining antibiotic activity.

Assay [2] concerns Escherichia coli. In words: Gradient plate in vitro antibiotic activity (MIC), Escherichia coli. The following applies: read-out: Minimum Inhibitory Concentration. An excerpt: (§2) The values in the Table are the minimum inhibitory concentrations (MIC) for the test compounds against the indicated microorganisms. The MIC values were obtained using the gradient plate in vitro method for determining antibiotic activity.

The test system of assay [3] is Klebsiella pneumoniae. The assay is described as follows: Gradient plate in vitro antibiotic activity (MIC), Klebsiella pneumoniae. As to conditions: read-out: Minimum Inhibitory Concentration.
Excerpt: as §2

The subject of assay [4] is Aerobacter aerogenes. In words: Gradient plate in vitro antibiotic activity (MIC), Aerobacter aerogenes. As to conditions: Klebsiella aerogenes, read-out: Minimum Inhibitory Concentration.
Excerpt: as §1

Assay [5] deals with Salmonella heidelberg. In words: Gradient plate in vitro antibiotic activity (MIC), Salmonella heidelberg. As to conditions: Salmonella enterica, read-out: Minimum Inhibitory Concentration.
Excerpt: as §2

In assay [6] the test system is Pseudomonas aeruginosa. The assay is described as follows: Gradient plate in vitro antibiotic activity (MIC), Pseudomonas aeruginosa. The following applies: read-out: Minimum Inhibitory Concentration.
Excerpt: as §2

The subject of assay [7] is Serratia marcescens. The assay is described as follows: Gradient plate in vitro antibiotic activity (MIC), Serratia marcescens. As to conditions: read-out: Minimum Inhibitory Concentration.
Excerpt: as §2

Assay [8] deals with V41 penicillin resistant Staphylococcus. The assay is described as follows: Gradient plate in vitro antibiotic activity (MIC), V41 penicillin resistant Staphylococcus. As to conditions: read-out: Minimum Inhibitory Concentration.
Excerpt: as §1
(§3) 1. Test organisms V41, V32, and V84 are penicillin

In assay [9] the test system is V32 penicillin resistant Staphylococcus. In words: Gradient plate in vitro antibiotic activity (MIC), V32 penicillin resistant Staphylococcus. The following applies: read-out: Minimum Inhibitory Concentration.
Excerpt: as §1, §3

In assay [10] the test system is X400 methicillin resistant Staphylococcus. The assay is described as follows: Gradient plate in vitro antibiotic activity (MIC), X400 methicillin resistant Staphylococcus. The following applies: read-out: Minimum Inhibitory Concentration.
Excerpt: as §1
resistant Staphylococcus. X-400 is a methicillin
resistant Staphylococcus.

The test system of assay [11] is V84 penicillin resistant Staphylococcus. In words: Gradient plate in vitro antibiotic activity (MIC), V84 penicillin resistant Staphylococcus. The following applies: read-out: Minimum Inhibitory Concentration.
Excerpt: as §1, §3

In brackets after ≈: the same amount, converted by molar mass. Where only a bound is given, the exact number is not on record here.

These results are taken from patent publication US4048161A, “7-[α-(Benzimidazol-2-ylcarbonylamino)-arylacetamido]ephalosporins” (Eli Lilly and Company, priority 1976, dated 1977).

For the molecule `Cn1nnnc1SCC1=C(C(=O)O)N2C(=O)C(NC(=O)C(NC(=O)c3nc4ccccc4[nH]3)c3ccccc3)C2SC1` (centres unmarked) [B], the MIC stood at 5 µg/mL (≈ 8.26 µM) in assay [1]; 18.5 µg/mL (≈ 30.5 µM) in [2]; 5 µg/mL (≈ 8.26 µM) in assay [3]; 8.5 µg/mL (≈ 14 µM) in assay [4]; 6.5 µg/mL (≈ 10.7 µM) in assay [5]; 22 µg/mL (≈ 36.3 µM) in assay [6]. Moreover, the MIC in [7] is 21.5 µg/mL (≈ 35.5 µM); in assay [8], 5 µg/mL (≈ 8.26 µM); in assay [9] it was 7 µg/mL (≈ 11.6 µM); in assay [10], more than 20 µg/mL; in assay [11], 0.7 µg/mL (≈ 1.16 µM).
As to `CC(=O)OCC1=C(C(=O)O)N2C(=O)C(NC(=O)C(NC(=O)c3nc4ccccc4[nH]3)c3ccccc3)C2SC1` (centres unmarked) [A], the MIC was 15 µg/mL (≈ 27.3 µM) in assay [1]; 26.5 µg/mL (≈ 48.2 µM) in assay [2]; 18.5 µg/mL (≈ 33.7 µM) in [3]; 18.3 µg/mL (≈ 33.3 µM) in assay [4]; 22 µg/mL (≈ 40 µM) in assay [5]; 25 µg/mL (≈ 45.5 µM) in assay [6]. Further, the MIC in [7] is 100 µg/mL (≈ 182 µM); in [8] it was 4 µg/mL (≈ 7.28 µM); in [9], 5 µg/mL (≈ 9.1 µM); in assay [10], more than 20 µg/mL; in [11] it was 0.6 µg/mL (≈ 1.09 µM).
In the case of `NC(=O)OCC1=C(C(=O)O)N2C(=O)C(NC(=O)C(NC(=O)c3nc4ccccc4[nH]3)c3ccc(O)cc3)C2SC1` (centres unmarked) [F], the MIC in assay [1] is 19.5 µg/mL (≈ 34.4 µM); in assay [2], 55 µg/mL (≈ 97.1 µM); in assay [3], 10 µg/mL (≈ 17.7 µM); in [4] it was 55 µg/mL (≈ 97.1 µM); in assay [5], 19.5 µg/mL (≈ 34.4 µM); in assay [6], 19.5 µg/mL (≈ 34.4 µM). For the same molecule, the MIC in [7] was more than 200 µg/mL; in assay [8], 0.9 µg/mL (≈ 1.59 µM); in assay [9], 0.9 µg/mL (≈ 1.59 µM); in [10], 120 µg/mL (≈ 212 µM); in assay [11], 0.8 µg/mL (≈ 1.41 µM).
For `Cn1c(SCC2=C(C(=O)O)N3C(=O)C(NC(=O)C(NC(=O)c4nc5ccccc5[nH]4)c4ccc(O)cc4)C3SC2)nnc(O)c1=O` (centres unmarked) [G], the MIC in [1] was determined as 6.7 µg/mL (≈ 10.1 µM); in assay [2], 11 µg/mL (≈ 16.5 µM); in [3], 1 µg/mL (≈ 1.5 µM); in assay [4] it was 19.2 µg/mL (≈ 28.9 µM); in assay [5], 8.5 µg/mL (≈ 12.8 µM); in assay [6], 60 µg/mL (≈ 90.3 µM). In addition, the MIC in [7] is 41 µg/mL (≈ 61.7 µM); in [8] it was 0.8 µg/mL (≈ 1.2 µM); in assay [9], 1.8 µg/mL (≈ 2.71 µM); in assay [10] it was more than 200 µg/mL; in [11] it was 0.8 µg/mL (≈ 1.2 µM).
In the case of `Cc1nnc(SCC2=C(C(=O)O)N3C(=O)C(NC(=O)C(NC(=O)c4nc5ccccc5[nH]4)c4ccc(O)cc4)C3SC2)s1` (centres unmarked) [E], the MIC in assay [1] turned out to be 10 µg/mL (≈ 15.7 µM); in assay [2], 16 µg/mL (≈ 25.1 µM); in assay [3] it was 4.5 µg/mL (≈ 7.06 µM); in assay [4] it was 21.5 µg/mL (≈ 33.7 µM); in [5], 16 µg/mL (≈ 25.1 µM); in [6], 18.5 µg/mL (≈ 29 µM). For the same molecule, the MIC in [7] came out at 70 µg/mL (≈ 110 µM); in assay [8], 4 µg/mL (≈ 6.27 µM); in assay [9], 5 µg/mL (≈ 7.84 µM); in assay [10], 100 µg/mL (≈ 157 µM); in [11], 1 µg/mL (≈ 1.57 µM).
Regarding `Cn1nnnc1SCC1=C(C(=O)O)N2C(=O)C(NC(=O)C(NC(=O)c3nc4ccccc4[nH]3)c3cccs3)C2SC1` (centres unmarked) [D], the MIC in [1] was determined as 4 µg/mL (≈ 6.54 µM); in assay [2] it was 7 µg/mL (≈ 11.4 µM); in assay [3] it was 0.6 µg/mL (≈ 0.981 µM); in assay [4], 10 µg/mL (≈ 16.3 µM); in assay [5], 7.5 µg/mL (≈ 12.3 µM); in assay [6], 14.8 µg/mL (≈ 24.2 µM). In addition, the MIC in assay [7] stood at 14.8 µg/mL (≈ 24.2 µM); in [8] it was 0.6 µg/mL (≈ 0.981 µM); in assay [9], 0.6 µg/mL (≈ 0.981 µM); in assay [10] it was 19.5 µg/mL (≈ 31.9 µM); in assay [11], 0.5 µg/mL (≈ 0.817 µM).
As for `Cn1nnnc1SCC1=C(C(=O)O)N2C(=O)C(NC(=O)C(NC(=O)c3nc4ccccc4[nH]3)c3ccc(O)cc3)C2SC1` (centres unmarked) [C], the MIC in assay [1] was determined as 5.5 µg/mL (≈ 8.85 µM); in [2] it was 7.5 µg/mL (≈ 12.1 µM); in [3], 0.9 µg/mL (≈ 1.45 µM); in assay [4], 13 µg/mL (≈ 20.9 µM); in assay [5], 8 µg/mL (≈ 12.9 µM); in assay [6] it was 10.5 µg/mL (≈ 16.9 µM). Also, the MIC in [7] worked out at 20.7 µg/mL (≈ 33.3 µM); in assay [8] it was 0.9 µg/mL (≈ 1.45 µM); in assay [9], 0.9 µg/mL (≈ 1.45 µM); in [10], 60 µg/mL (≈ 96.5 µM); in assay [11], 0.8 µg/mL (≈ 1.29 µM).
